Measured values published in ChEMBL document CHEMBL5390287, “Discovery of a Tritiated Radioligand with High Affinity and Selectivity for the Histamine H3 Receptor” (ACS Med Chem Lett, 2023).
Activity calls are given as the source filed them. No cut-off for these calls is given here.

Legend:
Histamine H3 receptor [1] = biological target: T1, Histamine H3 receptor (Homo sapiens, UniProt Q9Y5N1); experiment: Agonist activity at human histamine H3 receptor in HEK293T cells expressing H3R-NlucC/NlucN-mGsi construct using furimazine as substrate upto 10 uM by MiniG recruitment assay; format: functional, cell-based
Histamine H2 receptor = Histamine H2 receptor (Homo sapiens, UniProt P25021); experiment: Displacement of [3H]UR-KAT479 from SP-FLAG tagged human histamine H2 receptor expressed in HEK293T cells assessed as inhibition constant incubated for 60 min by scintillation counter analysis; format: cell-based
Histamine H3 receptor [2] = biological target: T1, Histamine H3 receptor; experiment: Binding affinity to SP-FLAG tagged human histamine H3 receptor expressed in HEK293T cells assessed as dissociation rate constant incubated for 30 mins by scintillation counting analysis; format: cell-based; details: tested as the 3H-labelled form
Homo sapiens [3] = species on record: Homo sapiens; experiment: Selectivity ratio of Ki for human histamine H2 receptor to Ki for human histamine H3 receptor
Histamine H4 receptor = Histamine H4 receptor (Homo sapiens, UniProt Q9H3N8); experiment: Displacement of [3H]histamine from SP-FLAG tagged human histamine H4 receptor expressed in HEK293T cells assessed as inhibition constant incubated for 60 min by scintillation counter analysis; format: cell-based
Histamine H3 receptor [4] = biological target: T1, Histamine H3 receptor; experiment: Binding affinity to SP-FLAG tagged human histamine H3 receptor expressed in HEK293T cells assessed as association time constant incubated for 60 mins by scintillation counting analysis; format: cell-based; details: tested as the 3H-labelled form
Histamine H3 receptor [5] = biological target: T1, Histamine H3 receptor; experiment: Antagonist activity at human histamine H3 receptor in HEK293T cells expressing H3R-NlucC/NlucN-mGsi construct using furimazine as substrate assessed as displacement of histamine by MiniG recruitment assay; format: functional, cell-based; details: filed as antagonist
Histamine H3 receptor [6] = biological target: T1, Histamine H3 receptor; experiment: Binding affinity to SP-FLAG tagged human histamine H3 receptor expressed in HEK293T cells; format: cell-based; details: tested as the 3H-labelled form
Histamine H3 receptor [7] = biological target: T1, Histamine H3 receptor; experiment: Binding affinity to SP-FLAG tagged human histamine H3 receptor expressed in HEK293T cells using sodium containing Leibovitz's L-15 medium incubated for 60 min by scintillation counter analysis; format: cell-based
Histamine H3 receptor [8] = biological target: T1, Histamine H3 receptor; experiment: Displacement of UR-NR266 from NLuc-tagged human histamine H3 receptor expressed in HEK293T cells assessed as inhibition constant incubated for 5 mins followed by UR-NR266 addition by furimazine based NanoBRET competition binding assay; format: cell-based
Histamine H1 receptor = Histamine H1 receptor (Homo sapiens, UniProt P35367); experiment: Displacement of [3H]mepyramine from SP-FLAG tagged human histamine H1 receptor expressed in HEK293T cells assessed as inhibition constant incubated for 60 min by scintillation counter analysis; format: cell-based
Histamine H3 receptor [9] = biological target: T1, Histamine H3 receptor; experiment: Displacement of [3H]UR-MN259 from SP-FLAG tagged human histamine H3 receptor expressed in HEK293T cells assessed as inhibition constant incubated for 60 min by scintillation counter analysis; format: cell-based
Histamine H3 receptor [10] = biological target: T1, Histamine H3 receptor; experiment: Binding affinity to SP-FLAG tagged human histamine H3 receptor expressed in HEK293T cells assessed as association rate constant incubated for 60 mins by scintillation counting analysis; format: cell-based; details: tested as the 3H-labelled form
Histamine H3 receptor [11] = biological target: T1, Histamine H3 receptor; experiment: Binding affinity to SP-FLAG tagged human histamine H3 receptor expressed in HEK293T cells assessed as maximum binding; format: cell-based; details: tested as the 3H-labelled form
Histamine H3 receptor [12] = biological target: T1, Histamine H3 receptor; experiment: Binding affinity to SP-FLAG tagged human histamine H3 receptor expressed in HEK293T cells assessed as dissociation time constant incubated for 30 mins by scintillation counting analysis; format: cell-based; details: tested as the 3H-labelled form
Homo sapiens [13] = species on record: Homo sapiens; experiment: Selectivity ratio of Ki for human histamine H1 receptor to Ki for human histamine H3 receptor
Homo sapiens [14] = species on record: Homo sapiens; experiment: Selectivity ratio of Ki for human histamine H4 receptor to Ki for human histamine H3 receptor
Histamine H3 receptor [15] = biological target: T1, Histamine H3 receptor; experiment: Binding affinity to SP-FLAG tagged human histamine H3 receptor expressed in HEK293T cells assessed as dissociation constant by incubated for 30 mins by scintillation counting analysis; format: cell-based
Histamine H3 receptor [16] = biological target: T1, Histamine H3 receptor; experiment: Binding affinity to SP-FLAG tagged human histamine H3 receptor expressed in HEK293T cells assessed as kinetic dissociation constant incubated for 30 mins by scintillation counting analysis; format: cell-based

T1 sequence (Q9Y5N1 whole entry): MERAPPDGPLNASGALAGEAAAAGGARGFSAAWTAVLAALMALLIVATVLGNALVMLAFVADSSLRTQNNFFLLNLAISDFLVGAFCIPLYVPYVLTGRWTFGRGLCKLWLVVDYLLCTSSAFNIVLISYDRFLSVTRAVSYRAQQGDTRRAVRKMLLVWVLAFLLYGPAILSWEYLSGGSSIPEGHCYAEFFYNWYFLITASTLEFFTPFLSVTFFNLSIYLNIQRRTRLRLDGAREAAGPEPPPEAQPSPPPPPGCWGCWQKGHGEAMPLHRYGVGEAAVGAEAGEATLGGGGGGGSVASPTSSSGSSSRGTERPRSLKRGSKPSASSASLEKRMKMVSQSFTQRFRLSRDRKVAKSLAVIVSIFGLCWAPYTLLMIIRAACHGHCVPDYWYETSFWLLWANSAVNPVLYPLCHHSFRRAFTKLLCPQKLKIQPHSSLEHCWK
Histamine H2 receptor, sequence (P25021 whole entry): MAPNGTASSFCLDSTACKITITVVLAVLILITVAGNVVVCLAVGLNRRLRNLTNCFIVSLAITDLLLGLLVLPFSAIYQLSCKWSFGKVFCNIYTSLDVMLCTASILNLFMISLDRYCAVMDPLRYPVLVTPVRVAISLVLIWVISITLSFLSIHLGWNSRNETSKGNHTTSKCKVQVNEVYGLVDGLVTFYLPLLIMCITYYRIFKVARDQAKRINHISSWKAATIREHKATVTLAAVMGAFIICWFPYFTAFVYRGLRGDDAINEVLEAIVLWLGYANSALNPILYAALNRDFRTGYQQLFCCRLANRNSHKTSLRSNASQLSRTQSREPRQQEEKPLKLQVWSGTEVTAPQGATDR
Histamine H1 receptor, sequence (P35367 whole entry): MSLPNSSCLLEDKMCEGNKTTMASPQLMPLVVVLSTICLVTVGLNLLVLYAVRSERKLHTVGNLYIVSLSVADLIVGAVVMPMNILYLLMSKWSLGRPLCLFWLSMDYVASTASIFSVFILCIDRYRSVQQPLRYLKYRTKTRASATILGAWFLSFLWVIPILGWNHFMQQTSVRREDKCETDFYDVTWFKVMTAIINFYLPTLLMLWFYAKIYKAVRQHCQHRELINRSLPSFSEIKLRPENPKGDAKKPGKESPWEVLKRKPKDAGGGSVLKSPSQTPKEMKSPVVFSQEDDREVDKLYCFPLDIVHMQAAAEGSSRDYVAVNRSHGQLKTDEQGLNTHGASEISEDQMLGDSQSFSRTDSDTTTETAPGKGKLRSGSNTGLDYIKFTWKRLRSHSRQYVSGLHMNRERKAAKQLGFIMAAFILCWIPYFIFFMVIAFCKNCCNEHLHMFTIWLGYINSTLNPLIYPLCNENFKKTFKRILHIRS

Row | Activity (Histamine H3 receptor [1]) | Ki (Histamine H2 receptor) | K (Histamine H3 receptor [2]) | Ratio Ki (Homo sapiens [3]) | Ki (Histamine H4 receptor) | TIME (Histamine H3 receptor [4]) | pKb (Histamine H3 receptor [5]) | Kobs (Histamine H3 receptor [6]) | Ki (Histamine H3 receptor [7]) | Ki (Histamine H3 receptor [8]) | Ki (Histamine H1 receptor) | Ki (Histamine H3 receptor [9]) | K (Histamine H3 receptor [10]) | Bmax (disintegrations/minute) (Histamine H3 receptor [11]) | TIME (Histamine H3 receptor [12]) | Ratio Ki (Homo sapiens [13]) | Ratio Ki (Homo sapiens [14]) | Kd (Histamine H3 receptor [15]) | Kd (Histamine H3 receptor [7]) | Kd (Histamine H3 receptor [16]) | SMILES
1 | inactive | > 100000 nM | 0.07 min⁻¹ | > 100 | > 100000 nM | 0.102 h | 9.39 | 0.18 min⁻¹ | 0.288 nM | 0.275 nM | > 100000 nM | 0.282 nM | 3.67e+06 M⁻¹ s⁻¹ | 1670 | 0.241 h | > 100 | > 100 | – | – | – | CCC(=O)NC1CCN(Cc2ccc(OCCCN3CCCCC3)cc2)CC1
2 | – | – | – | – | – | – | – | – | – | – | – | – | – | – | – | – | – | 0.562 nM | 0.513 nM | 0.324 nM | [3H]C([3H])([3H])C([3H])([3H])C(=O)NC1CCN(Cc2ccc(OCCCN3CCCCC3)cc2)CC1
3 | – | – | – | – | – | – | – | – | 28.2 nM | – | – | 5.75 nM | – | – | – | – | – | – | – | – | N=C(N)SCCc1cnc[nH]1 [IMETIT]
